# Experiments:
# [1] = tested on: mice overexpressing CRH in the forebrain; conditions: cited from earlier work
# CRH-COE^CNS mice = test: REMS activity by EEG/EMG recording in CRH-COE^CNS mice and control littermates; conditions: for REMS activity: treatment days vs baseline
# Method: (§1) Experiments were conducted with two different mouse lines of excessive central CRH secretion and their respective control littermates (CL). Mice of the CRH-COE^CNS line are characterised by CRH-overexpression within the whole CNS, whereas mice of the Cor26 CRH line display a CRH-overexpression specific to CRH-ergic neurons of the CNS. Three different CRHR1 antagonists were tested. […] In all cases, animals were left to recover from EEG/EMG-electrode implantation for two weeks, after which two days of baseline recording were initiated. Treatment with CRH-R1 antagonist or respective vehicle control commenced thereafter for five consecutive days. Antagonists were applied through the drinking water at a daily dose of 50 mg/kg body weight. EEG and EMG recordings were manually scored as wake, non-REMS (NREMS), and REMS in four second epochs by an experienced evaluator.
# Cor26 CRH mice = test: REMS levels by EEG/EMG recording in Cor26 CRH mice and control littermates; conditions: for REMS activity / REMS levels: CRH-overexpressing Cor26 CRH mice, 50 mg/kg/d via drinking water
# Method: as §1
Compound,REM enhancement [1],"REMS activity in control littermates (CRH-COE^CNS mice; CL (control) mice, 50 mg/kg/d via drinking water)","treatment day of strongest suppression of REMS activity (CRH-COE^CNS mice; CRH-COE^CNS mice, 50 mg/kg/d)","REMS activity (CRH-COE^CNS mice; CRH-COE^CNS mice, 50 mg/kg/d via drinking water, 50 mg/kg/day)","REMS activity (CRH-COE^CNS mice; CRH-COE^CNS mice, 50 mg/kg/d via drinking water, listed as DMP696, 50 mg/kg/day)",REMS activity / REMS levels (Cor26 CRH mice; 50 mg/kg/day),"REMS activity / REMS levels (Cor26 CRH mice; listed as CP-316311, 50 mg/kg/day)","REMS levels, area under the curve (AUC) within the light period (Cor26 CRH mice; Cor26 CRH mice, baseline vs treatment day three, P=0.006)"
COCC(COC)Nc1nc(C)nc2c(-c3ccc(Cl)cc3Cl)c(C)nn12 [DMP-696],could reverse the REM enhancement,only a mild suppression of REMS,treatment day three,significant decrease in REMS activity,suppressed,–,–,–
"CCC(CC)Oc1cc(C)nc(Oc2c(C)cc(C)cc2C)c1C [CP-316,311]",–,–,–,–,–,apparently seemed weak,suppressed,significant decrease

# Reference: patent US20150094310A1, “CRHR1 ANTAGONISTS FOR USE IN THE TREATMENT OF PATIENTS HAVING CRH OVERACTIVITY” (HOLSBOERMASCHMEYER NEUROCHEMIE GMBH, priority 2012, published 2015)
